In this test the target is T1, IRAK4 (Homo sapiens, UniProt Q9NWZ3).
T1 construct: C-terminal HiBiT-tagged Jurkat cells (polyclonal cell line or clone 8D5); endogenous in cells; host or cells: Jurkat cells (polyclonal cell line or clone 8D5), HiBiT-tagged
T1 sequence (Q9NWZ3 1-460): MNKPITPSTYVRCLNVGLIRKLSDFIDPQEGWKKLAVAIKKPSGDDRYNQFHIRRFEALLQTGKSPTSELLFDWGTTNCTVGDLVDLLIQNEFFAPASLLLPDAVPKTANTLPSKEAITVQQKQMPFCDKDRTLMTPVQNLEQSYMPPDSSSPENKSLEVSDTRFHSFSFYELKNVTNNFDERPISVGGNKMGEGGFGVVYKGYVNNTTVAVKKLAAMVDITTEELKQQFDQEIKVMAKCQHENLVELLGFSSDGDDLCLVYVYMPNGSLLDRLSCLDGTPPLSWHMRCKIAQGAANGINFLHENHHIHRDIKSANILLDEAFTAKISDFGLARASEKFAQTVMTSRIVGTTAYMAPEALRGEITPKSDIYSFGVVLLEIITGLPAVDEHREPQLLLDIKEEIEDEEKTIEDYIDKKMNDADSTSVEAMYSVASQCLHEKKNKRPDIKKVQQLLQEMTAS
Nature of the test: IRAK4 Degradation HiBit Assay. The following applies: C-terminal HiBiT-tagged Jurkat cells, 4 hrs incubation; for DC50: % IRAK4 remaining, four-parameter fit (IC50 used as DC50); for Dmax: from fit of % IRAK4 remaining, read-out: Dmax. It is filed as cell-based. The gist of the method:
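Jurkat cells carrying C-terminal HiBiT-tagged IRAK4 (polyclonal or clone 8D5) exposed to compound, 10 μM–0.1 nM final over 11 points, for 4 h at 32 °C. Remaining IRAK4 measured by lytic HiBiT/LgBiT luminescence relative to DMSO. DC50 and Dmax taken from four-parameter variable-slope fits.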

With `N#CCNc1cc(-c2ccc3cc(C#N)cnn23)ncc1-c1nnc(N2CC3CCC(C2)N3CC2CCN(c3ccc([C@H]4CCC(=O)NC4=O)cc3)CC2)s1` (racemic) [Example 105, rac-7-{4-[(cyanomethyl)amino]-5-(5-{8-[(1-{4-[(3R)-2,6-dioxopiperidin-3-yl]phenyl}piperidin-4-yl)methyl]-3,8-diazabicyclo[3.2.1]octan-3-yl}-1,3,4-thiadiazol-2-yl)pyridin-2-yl}pyrrolo[1,2-b]pyridazine-3-carbonitrile], half-maximal degradation (DC50) was put at 6 nM and the Dmax (as a rule, the greatest extent of degradation seen) turned out to be 112%.

`N#Cc1cnn2c(-c3cc(NC4CCOCC4)c(-c4nnc(N5CCN(CC6CCN(c7ccc(C8CCC(=O)NC8=O)nc7)CC6)CC5)s4)cn3)ccc2c1` (racemic) [Example 106, rac-7-[5-(5-{4-[(1-{6-[(3R)-2,6-dioxopiperidin-3-yl]pyridin-3-yl}piperidin-4-yl)methyl]piperazin-1-yl}-1,3,4-thiadiazol-2-yl)-4-[(oxan-4-yl)amino]pyridin-2-yl]pyrrolo[1,2-b]pyridazine-3-carbonitrile]: the DC50 (in general, the midpoint of the concentration-degradation curve) was found to be 21 nM and the Dmax amounted to 99%.

On to `N#Cc1cnn2c(-c3cc(NC4CCOCC4)c(-c4nnc(N5CCN(C[C@H]6CC[C@H](Oc7ccc([C@@H]8CCC(=O)NC8=O)cn7)CC6)CC5)s4)cn3)ccc2c1` (racemic) [Example 107, 7-{4-[(oxan-4-yl)amino]-5-[5-(4-{[(1r,4r)-4-({5-[(3RS)-2,6-dioxopiperidin-3-yl]pyridin-2-yl}oxy)cyclohexyl]methyl}piperazin-1-yl)-1,3,4-thiadiazol-2-yl]pyridin-2-yl}pyrrolo[1,2-b]pyridazine-3-carbonitrile], for which the DC50 is 65 nM and the Dmax turned out to be 111%.

`N#Cc1cnn2c(-c3cc(NC4CCOCC4)c(-c4nnc(N5CC6CCC(C5)N6C[C@H]5CC[C@H](Oc6ccc([C@@H]7CCC(=O)NC7=O)cn6)CC5)s4)cn3)ccc2c1` (racemic) [Example 108, 7-{4-[(oxan-4-yl)amino]-5-[5-(8-{[(1r,4r)-4-({5-[(3RS)-2,6-dioxopiperidin-3-yl]pyridin-2-yl}oxy)cyclohexyl]methyl}-3,8-diazabicyclo[3.2.1]octan-3-yl)-1,3,4-thiadiazol-2-yl]pyridin-2-yl}pyrrolo[1,2-b]pyridazine-3-carbonitrile]: it took 40 nM to reach half-maximal degradation (DC50) and the Dmax was 87%.

For the compound `N#Cc1cnn2c(-c3cc(NC4CCC4)c(-c4nnc(N5CCN(CC6CCN(c7ccc(C8CCC(=O)NC8=O)cn7)CC6)CC5)s4)cn3)ccc2c1` (racemic) [Example 113, rac-7-[4-(cyclobutylamino)-5-(5-{4-[(1-{5-[(3R)-2,6-dioxopiperidin-3-yl]pyridin-2-yl}piperidin-4-yl)methyl]piperazin-1-yl}-1,3,4-thiadiazol-2-yl)pyridin-2-yl]pyrrolo[1,2-b]pyridazine-3-carbonitrile], the DC50 came out at 239 nM and the Dmax stood at 105%.

As to `COC[C@@H](C)Nc1cc(-c2ccc3cc(C#N)cnn23)ncc1-c1nnc(N2CC3CCC(C2)N3CC2CCN(c3ccc(C4CCC(=O)NC4=O)cn3)CC2)s1` (mixture of isomers) [Example 114, 7-[5-(5-{8-[(1-{5-[(3RS)-2,6-dioxopiperidin-3-yl]pyridin-2-yl}piperidin-4-yl)methyl]-3,8-diazabicyclo[3.2.1]octan-3-yl}-1,3,4-thiadiazol-2-yl)-4-{[(2R)-1-methoxypropan-2-yl]amino}pyridin-2-yl]pyrrolo[1,2-b]pyridazine-3-carbonitrile], the DC50 amounted to 100 nM and the Dmax stood at 110%.

Consider `N#Cc1cnn2c(-c3cc(NC4CCOCC4)c(-c4nnc(N5CCN(CC6CCN(c7ccc([C@H]8CCC(=O)NC8=O)cn7)CC6)CC5)s4)cn3)ccc2c1` (single isomer, unassigned) [Example 30], for which the DC50 worked out at 40 nM and the Dmax was found to be 104%.

As for `N#Cc1cnn2c(-c3cc(NC4CCOCC4)c(-c4nnc(N5CCN(CC6CCN(c7ccc([C@@H]8CCC(=O)NC8=O)cn7)CC6)CC5)s4)cn3)ccc2c1` (single isomer, unassigned) [Example 31], it took 160 nM to reach half-maximal degradation (DC50) and the Dmax was determined as 53%.

On to `CNc1cc(-c2ccc3cc(C#N)cnn23)ncc1-c1nnc(N2CCN(CC3CCN(c4ccc([C@H]5CCC(=O)NC5=O)cn4)CC3)CC2)s1` (single isomer, unassigned) [Example 41], for which the DC50 turned out to be 1050 nM and the Dmax is 83%.

For the compound `CNc1cc(-c2ccc3cc(C#N)cnn23)ncc1-c1nnc(N2CCN(CC3CCN(c4ccc([C@@H]5CCC(=O)NC5=O)cn4)CC3)CC2)s1` (single isomer, unassigned) [Example 42], half-maximal degradation (DC50) was put at 16 nM and the Dmax worked out at 115%.

Turning to `N#Cc1cnn2c(-c3cc(NC4CCOCC4)c(-c4nnc(N5CC6CCC(C5)N6CC5CCN(c6ccc([C@@H]7CCC(=O)NC7=O)cc6)CC5)s4)cn3)ccc2c1` (single isomer, unassigned) [Example 109], half-maximal degradation (DC50) was put at 52 nM and the Dmax turned out to be 94%.

As for `N#Cc1cnn2c(-c3cc(NC4CCOCC4)c(-c4nnc(N5CC6CCC(C5)N6CC5CCN(c6ccc([C@H]7CCC(=O)NC7=O)cc6)CC5)s4)cn3)ccc2c1` (single isomer, unassigned) [Example 110], half-maximal degradation (DC50) was put at 50 nM and the Dmax is 50%.

`N#Cc1cnn2c(-c3cc(NC4CCOCC4)c(-c4nnc(N5CC6CCC(C5)N6CC5CCN(c6ccc([C@@H]7CCC(=O)NC7=O)cn6)CC5)s4)cn3)ccc2c1` (single isomer, unassigned) [Example 111]: it took 32 nM to reach half-maximal degradation (DC50) and the Dmax stood at 110%.

With `N#Cc1cnn2c(-c3cc(NC4CCOCC4)c(-c4nnc(N5CC6CCC(C5)N6CC5CCN(c6ccc([C@H]7CCC(=O)NC7=O)cn6)CC5)s4)cn3)ccc2c1` (single isomer, unassigned) [Example 112], the DC50 amounted to 33 nM and the Dmax worked out at 92%.

As for `N#Cc1cnn2c(-c3cc(NC4CCOCC4)c(-c4nnc(N5CCN(CC6CCN(c7ccc([C@H]8CCC(=O)NC8=O)nc7)CC6)CC5)s4)cn3)ccc2c1` (single isomer, unassigned) [Example 116], the DC50 amounted to 100 nM and the Dmax was 111%.

On to `N#Cc1cnn2c(-c3cc(NC4CCOCC4)c(-c4nnc(N5CCN(CC6CCN(c7ccc([C@@H]8CCC(=O)NC8=O)nc7)CC6)CC5)s4)cn3)ccc2c1` (single isomer, unassigned) [Example 117], for which the DC50 was found to be 75 nM and the Dmax stood at 106%.

Turning to `CC(C)Nc1cc(-c2ccc3cc(C#N)cnn23)ncc1-c1nnc(N2CCN(CC3CCN(c4ccc([C@@H]5CCC(=O)NC5=O)cn4)CC3)CC2)s1` (single isomer, unassigned) [Example 118], the DC50 worked out at 49 nM and the Dmax amounted to 110%.

`N#Cc1cnn2c(-c3cc(NC4CC4)c(-c4nnc(N5CCN(CC6CCN(c7ccc([C@@H]8CCC(=O)NC8=O)cn7)CC6)CC5)s4)cn3)ccc2c1` (single isomer, unassigned) [Example 119]: half-maximal degradation (DC50) was put at 30 nM and the Dmax is 111%.

Turning to `N#Cc1cnn2c(-c3cc(NC4CC4)c(-c4nnc(N5CCN(CC6CCN(c7ccc([C@@H]8CCC(=O)NC8=O)cc7)CC6)CC5)s4)cn3)ccc2c1` (single isomer, unassigned) [Example 120], the DC50 was determined as 68 nM and the Dmax came to 109%.

Take `CC(C)Nc1cc(-c2ccc3cc(C#N)cnn23)ncc1-c1nnc(N2CC3CCC(C2)N3CC2CCN(c3ccc([C@@H]4CCC(=O)NC4=O)cc3)CC2)s1` (single isomer, unassigned) [Example 121]: half-maximal degradation (DC50) was put at 73 nM and the Dmax came to 88%.

For `CC(C)Nc1cc(-c2ccc3cc(C#N)cnn23)ncc1-c1nnc(N2CC3CCC(C2)N3CC2CCN(c3ccc([C@@H]4CCC(=O)NC4=O)cn3)CC2)s1` (single isomer, unassigned) [Example 122], half-maximal degradation (DC50) was put at 58 nM and the Dmax was 105%.

Turning to `N#Cc1cnn2c(-c3cc(NC4CC4)c(-c4nnc(N5CC6CCC(C5)N6CC5CCN(c6ccc([C@@H]7CCC(=O)NC7=O)cc6)CC5)s4)cn3)ccc2c1` (single isomer, unassigned) [Example 123], the DC50 worked out at 80 nM and the Dmax stood at 96%.

For the compound `N#Cc1cnn2c(-c3cc(N[C@@H]4CCOC4)c(-c4nnc(N5CC6CCC(C5)N6CC5CCN(c6ccc([C@@H]7CCC(=O)NC7=O)cn6)CC5)s4)cn3)ccc2c1` (single isomer, unassigned) [Example 124], half-maximal degradation (DC50) was put at 8 nM and the Dmax came to 110%.

Regarding `N#Cc1cnn2c(-c3cc(NC4CC4)c(-c4nnc(N5CC6CCC(C5)N6CC5CCN(c6ccc([C@@H]7CCC(=O)NC7=O)cn6)CC5)s4)cn3)ccc2c1` (single isomer, unassigned) [Example 125], half-maximal degradation (DC50) was put at 30 nM and the Dmax was determined as 106%.

With `CCNc1cc(-c2ccc3cc(C#N)cnn23)ncc1-c1nnc(N2CC3CCC(C2)N3CC2CCN(c3ccc([C@@H]4CCC(=O)NC4=O)cc3)CC2)s1` (single isomer, unassigned) [Example 126], it took 43 nM to reach half-maximal degradation (DC50) and the Dmax worked out at 108%.
